Data set [1] deals with α5β1 integrin (Homo sapiens, UniProt P05556+P08648). As to the kind of experiment: Solid phase binding assay with surface-coated integrin and soluble fibronectin. The settings on record: incubation with fibronectin, unpublished data. The procedure: Tests carried out in cell-free systems, use isolated extracellular domains of integrins in conjunction with ECM proteins, either extracted from human tissue or produced by recombinant methods. Most of these tests are based on competitive solid phase binding assays, in which one component is bound to the multi-well plate and in a subsequent step, soluble ligands are added, testing their capacity to block the binding to that component. Mainly two procedures are described in the literature, differing in the molecule used to coat the surfaces: the isolated integrin extracellular domains or the ECM protein. In the first case, the integrin is coated on the surface, followed by an incubation with a mixture of the native ECM protein and increasing concentrations of the ligand of interest. In an alternative test system, the natural ECM protein (vitronectin for αvβ3 and αvβ5, LAP (TGFβ) for αvβ6 and αvβ8, fibronectin for α5β1 and fibrinogen for αIIbβ3) is immobilized onto the surface, and the soluble integrin, together with a serial dilution of the inhibitory ligand, is added afterwards. The read-out in both procedures is usually done in an ELISA-like manner by using conjugated antibodies recognizing the integrin head groups. […] For a detailed description of the reference to the SI. […]

The conditions of data set [2]: cited from earlier work.

Sequence of α5β1 integrin (P08648 42-995 limits assumed): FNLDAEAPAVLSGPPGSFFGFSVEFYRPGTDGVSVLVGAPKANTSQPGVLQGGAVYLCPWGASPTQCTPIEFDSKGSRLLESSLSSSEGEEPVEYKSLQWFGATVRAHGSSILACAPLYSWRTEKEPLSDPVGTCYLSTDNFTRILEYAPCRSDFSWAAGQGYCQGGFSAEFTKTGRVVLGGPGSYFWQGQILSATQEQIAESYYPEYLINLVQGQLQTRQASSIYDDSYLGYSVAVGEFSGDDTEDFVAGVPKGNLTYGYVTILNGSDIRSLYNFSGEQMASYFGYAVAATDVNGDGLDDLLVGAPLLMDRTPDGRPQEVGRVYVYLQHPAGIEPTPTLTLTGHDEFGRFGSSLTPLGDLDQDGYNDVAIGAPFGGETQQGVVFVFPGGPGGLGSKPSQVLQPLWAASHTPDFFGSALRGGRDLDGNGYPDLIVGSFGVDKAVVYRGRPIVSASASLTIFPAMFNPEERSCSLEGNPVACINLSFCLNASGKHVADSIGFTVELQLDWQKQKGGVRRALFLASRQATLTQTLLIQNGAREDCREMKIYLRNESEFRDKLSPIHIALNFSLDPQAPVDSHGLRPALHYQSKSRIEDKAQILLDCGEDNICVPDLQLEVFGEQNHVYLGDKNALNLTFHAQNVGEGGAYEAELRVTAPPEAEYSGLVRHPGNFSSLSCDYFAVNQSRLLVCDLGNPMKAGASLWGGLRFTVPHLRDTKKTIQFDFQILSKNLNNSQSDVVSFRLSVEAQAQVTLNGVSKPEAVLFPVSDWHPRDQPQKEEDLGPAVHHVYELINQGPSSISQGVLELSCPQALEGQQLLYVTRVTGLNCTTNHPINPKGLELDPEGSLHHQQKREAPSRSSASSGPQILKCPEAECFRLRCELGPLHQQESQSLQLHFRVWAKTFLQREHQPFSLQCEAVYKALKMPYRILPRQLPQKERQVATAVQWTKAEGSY
Sequence of α5β1 integrin (P05556 21-728 limits assumed): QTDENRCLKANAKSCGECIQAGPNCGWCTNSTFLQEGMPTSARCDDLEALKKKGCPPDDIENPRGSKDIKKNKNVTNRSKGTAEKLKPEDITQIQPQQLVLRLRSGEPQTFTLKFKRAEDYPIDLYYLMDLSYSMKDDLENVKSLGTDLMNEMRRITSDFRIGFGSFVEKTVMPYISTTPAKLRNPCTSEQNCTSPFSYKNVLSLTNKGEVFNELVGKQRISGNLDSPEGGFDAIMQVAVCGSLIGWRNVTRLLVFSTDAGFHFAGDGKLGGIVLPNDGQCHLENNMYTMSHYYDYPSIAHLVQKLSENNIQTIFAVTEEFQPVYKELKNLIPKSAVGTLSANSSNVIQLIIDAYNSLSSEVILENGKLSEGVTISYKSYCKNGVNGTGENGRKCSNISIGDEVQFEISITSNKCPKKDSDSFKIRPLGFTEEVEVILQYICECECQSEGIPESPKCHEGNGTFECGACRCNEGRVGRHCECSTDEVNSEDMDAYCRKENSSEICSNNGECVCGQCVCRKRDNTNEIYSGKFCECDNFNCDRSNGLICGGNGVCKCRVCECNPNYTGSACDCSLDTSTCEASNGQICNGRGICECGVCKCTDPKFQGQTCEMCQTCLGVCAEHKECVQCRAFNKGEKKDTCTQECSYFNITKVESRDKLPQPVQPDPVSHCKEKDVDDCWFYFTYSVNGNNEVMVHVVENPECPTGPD

`CC(C)[C@H]1C(=O)N[C@@H](CCCNC(=N)N)C(=O)NCC(=O)N[C@@H](CC(=O)O)C(=O)N[C@H](Cc2ccccc2)C(=O)N1C` [Cilengitide, c(RGDf(NMe)V)]: the “antagonistic activity towards coated α5β1” value in data set [1] is “low antagonistic activities”. In addition, the half-life in man result in data set [2] is given as “about four”. In addition, in data set [2] (man), the systemic metabolism result was “not metabolized systemically”.

(Values after paper PMC5225454, “A Comprehensive Evaluation of the Activity and Selectivity Profile of Ligands for RGD-binding Integrins” (Scientific Reports, 2017).)
